In ChEMBL document CHEMBL6096672, “In Silico Enabled Discovery of KAI-11101, a Preclinical DLK Inhibitor for the Treatment of Neurodegenerative Disease and Neuronal Injury” (J Med Chem, 2025):
Converted amounts (≈) assume the structure as drawn.

Experiments:
[1] = Apparent permeability across apical to basal side in MDCK-MDR1 cells; type: ADME, cell-based, Canis lupus familiaris; conditions: dog
[2] = Efflux ratio in MDCK-MDR1 cells; type: ADME, cell-based, Canis lupus familiaris; conditions: dog
[3] = Kinetic solubility of compound at pH 6.8; type: physicochemical; conditions: buffer, read-out: Kinetic_solubility
[4] = Intrinsic clearance in human liver microsomes; type: ADME, Microsome; conditions: read-out: CLH
[5] = Intrinsic clearance in mouse liver microsomes; type: ADME, Microsome; conditions: read-out: CLH
[6] = Oral bioavailability in mouse at 5 mg/kg; type: ADME, organism-based; conditions: in vivo
[7] = Ratio of unbound drug concentration in brain to plasma of mouse at 5 mg/kg; type: ADME, organism-based; conditions: brain and plasma, read-out: K(p,uu,brain)
[8] = Clearance in mouse at 5 mg/kg, po; type: ADME, organism-based; conditions: in vivo
[9] = Half life in mouse at 5 mg/kg, po; type: ADME, organism-based; conditions: in vivo
[10] = Inhibition of GST-tagged DLK (1 to 520 residues)(unknown origin) using MKK4 as substrate preincubated for 60 mins followed by substrate/ATP addition measured after 30 mins by HTRF assay; design: species or system Homo sapiens
CYP3A4 = CYP3A4 (Homo sapiens, UniProt P08684); experiment: Time dependent inhibition of CYP3A4 (unknown origin) at 30 uM incubated for 30 mins relative to control; type: ADME; conditions: read-out: TDI
[11] = Inhibition of human DLK transfected in HEK293-T-REx cells assessed as decrease in JNK phosphorylation incubated for 5 hrs by HTRF assay; type: cell-based
[12] = Intrinsic clearance in dog liver microsomes; type: ADME, Canis lupus familiaris, Microsome; conditions: read-out: CLH

Sequence of CYP3A4 (P08684 whole entry): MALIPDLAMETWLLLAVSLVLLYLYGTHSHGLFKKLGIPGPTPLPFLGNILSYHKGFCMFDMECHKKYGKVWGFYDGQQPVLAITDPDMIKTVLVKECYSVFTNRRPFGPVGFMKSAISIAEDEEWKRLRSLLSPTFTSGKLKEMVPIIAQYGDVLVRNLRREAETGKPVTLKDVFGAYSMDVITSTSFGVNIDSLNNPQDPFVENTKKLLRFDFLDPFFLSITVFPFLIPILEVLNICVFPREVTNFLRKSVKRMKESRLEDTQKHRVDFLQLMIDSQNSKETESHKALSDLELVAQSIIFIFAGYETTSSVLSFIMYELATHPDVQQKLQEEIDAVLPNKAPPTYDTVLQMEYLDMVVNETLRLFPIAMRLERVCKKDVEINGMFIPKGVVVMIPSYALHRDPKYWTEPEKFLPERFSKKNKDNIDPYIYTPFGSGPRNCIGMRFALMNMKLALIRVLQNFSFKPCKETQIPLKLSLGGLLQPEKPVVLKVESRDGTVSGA

| Papp A→B [1] | efflux ratio [2] | solubility kinetic [3] | microsomal CLint [4] | microsomal CLint [5] | bioavailability [6] | Kp uu [7] | CL/F [8] | half-life [9] | Ki [10] | inhibition at 0.5 h, 30 µM (CYP3A4) | IC50 [11] | microsomal CLint [12] | SMILES |
| --- | --- | --- | --- | --- | --- | --- | --- | --- | --- | --- | --- | --- | --- |
| 16.2 ×10⁻⁶ cm/s | 1 | 320 µM (≈ 130 µg/mL) | 18 µL/min/mg | 20 µL/min/mg | 112% | 0.17 | 68 mL/min/kg | 36 min |  |  |  |  | CCc1nc(-c2cnc(N)c(C(F)(F)F)c2)c2ccc([C@H]3COCCN3C)cn12 |
| 24.1 ×10⁻⁶ cm/s | 0.4 |  |  |  |  | 0.42 |  |  | 1.2 nM | 15% | 103 nM |  | CCn1nc(-c2cnc(N)c(OC(F)(F)F)c2)c2ccc([C@H]3COCCN3C)cc21 |
|  |  |  | 14 µL/min/mg | 8.3 µL/min/mg |  | 0.41 |  |  | 1.9 nM |  | 94 nM | 96 µL/min/mg | CCn1nc(-c2cnc(N)c(OC(F)(F)F)c2)c2ccn([C@@H]3CCOC[C@@H]3OC)c(=O)c21 |
| 7.6 ×10⁻⁶ cm/s | 1 |  | 8.8 µL/min/mg | 16 µL/min/mg |  | 0.43 |  |  | 2.8 nM | 18% | 110 nM |  | CCn1nc(-c2cnc(N)c(OC(F)(F)F)c2)c2ccn(C3CCOCC3)c(=O)c21 |

The remaining lines, values behind:

| SMILES | Papp A→B [1] | efflux ratio [2] | solubility kinetic [3] | microsomal CLint [4] | microsomal CLint [5] | bioavailability [6] | Kp uu [7] | CL/F [8] | half-life [9] | Ki [10] | inhibition at 0.5 h, 30 µM (CYP3A4) | IC50 [11] | microsomal CLint [12] |
| --- | --- | --- | --- | --- | --- | --- | --- | --- | --- | --- | --- | --- | --- |
| CCc1nc(-c2cnc(N)c(C(F)(F)F)c2)c2ccc(C3CCOCC3)cn12 | 12.3 ×10⁻⁶ cm/s | 0.8 | 1 µM (≈ 0.39 µg/mL) | 27 µL/min/mg | 9 µL/min/mg |  |  |  |  |  |  |  |  |
| CCc1nc(-c2cnc(N)c(OC(F)F)c2)c2ccc([C@H]3COCCN3C)cn12 | 30.1 ×10⁻⁶ cm/s | 0.8 | 284 µM (≈ 115 µg/mL) | 8 µL/min/mg | 17 µL/min/mg | 144% | 0.14 | 109 mL/min/kg | 18 min |  |  |  |  |
